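At the GI50, growth is halved. Definition used: TGI = concentration required for complete inhibition of growth.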
Key:
Experiment in all cases: growth of human tumour cells (NCI), 384-well format
[1] = tested on: 786-0 renal
[2] = tested on: A498 renal
[3] = tested on: A549 NSCLC
[4] = tested on: ACHN renal
[5] = tested on: BT-549 breast
[6] = tested on: CAKI-1 renal
[7] = tested on: CCRF-CEM leukemia
[8] = tested on: COLO 205 colon
[9] = tested on: DU-145 prostate
[10] = tested on: EKVX NSCLC
[11] = tested on: HCC-2998 colon
[12] = tested on: HCT-116 colon
[13] = tested on: HCT-15 colon
[14] = tested on: HL-60(TB) leukemia
[15] = tested on: HOP-62 NSCLC
[16] = tested on: HOP-92 NSCLC
[17] = tested on: HS 578T breast
[18] = tested on: HT29 colon
[19] = tested on: IGROV1 ovarian
[20] = tested on: K-562 leukemia
[21] = tested on: KM12 colon
[22] = tested on: LOX IMVI melanoma
[23] = tested on: M14 melanoma
[24] = tested on: MALME-3M melanoma
[25] = tested on: MCF7 breast
[26] = tested on: MDA-MB-231 breast
[27] = tested on: MDA-MB-435 melanoma
[28] = tested on: MDA-MB-468 breast
[29] = tested on: MOLT-4 leukemia
[30] = tested on: NCI-H226 lung
[31] = tested on: NCI-H23 lung
[32] = tested on: NCI-H322M lung
[33] = tested on: NCI-H460 NSCLC
[34] = tested on: NCI-H522 lung
[35] = tested on: NCI/ADR-RES ovarian
[36] = tested on: OVCAR-3 ovarian
[37] = tested on: OVCAR-4 ovarian
[38] = tested on: OVCAR-8 ovarian
[39] = tested on: PC-3 prostate
[40] = tested on: RPMI-8226 leukemia
[41] = tested on: RXF 393 renal
[42] = tested on: SF-268 CNS
[43] = tested on: SF-295 CNS
[44] = tested on: SF-539 CNS
[45] = tested on: SK-MEL-28 melanoma
[46] = tested on: SK-MEL-5 melanoma
[47] = tested on: SK-OV-3 ovarian
[48] = tested on: SN12C renal
[49] = tested on: SNB-19 CNS
[50] = tested on: SNB-75 CNS
[51] = tested on: SR leukemia
[52] = tested on: SW-620 colon
[53] = tested on: T-47D breast
[54] = tested on: TK-10 renal
[55] = tested on: U251 glioblastoma
[56] = tested on: UACC-257 melanoma
[57] = tested on: UACC-62 melanoma
[58] = tested on: UO-31 renal

**Q.** For `CCCN(CCC)C(=O)C1=Cc2ccc(-c3ccc(C(=O)N4CCCC4)cc3)cc2N=C(N)C1`, which GI50 [1] is on record?
**A.** 4.81 µM

**Q.** What about the TGI [1] of the same compound?
**A.** 16.6 µM

**Q.** What about the GI50 [2] of the same compound?
**A.** 3.93 µM

**Q.** What about the TGI [2] of the same compound?
**A.** 15.3 µM

**Q.** And the GI50 [3]?
**A.** 6.2 µM

**Q.** And the TGI [3]?
**A.** 19.9 µM

**Q.** And the GI50 [4]?
**A.** 10.8 µM

**Q.** And the TGI [4]?
**A.** 23.5 µM

**Q.** And the GI50 [5]?
**A.** 4.19 µM

**Q.** What about the TGI [5] of the same compound?
**A.** 14.8 µM

**Q.** What about the GI50 [6] of the same compound?
**A.** 5.86 µM

**Q.** And the TGI [6]?
**A.** 19.2 µM

**Q.** What about the GI50 [7] of the same compound?
**A.** 3.53 µM

**Q.** What about the TGI [7] of the same compound?
**A.** 11.2 µM

**Q.** And the GI50 [8]?
**A.** 4.89 µM

**Q.** And the TGI [8]?
**A.** 16.9 µM

**Q.** And the GI50 [9]?
**A.** 9.15 µM

**Q.** And the TGI [9]?
**A.** 22.2 µM

**Q.** And the GI50 [10]?
**A.** 3.93 µM

**Q.** And the TGI [10]?
**A.** 16.5 µM

**Q.** What about the GI50 [11] of the same compound?
**A.** 5.42 µM

**Q.** What about the TGI [11] of the same compound?
**A.** 18.3 µM

**Q.** And the GI50 [12]?
**A.** 3.47 µM

**Q.** What about the TGI [12] of the same compound?
**A.** 13.1 µM

**Q.** And the GI50 [13]?
**A.** 3.48 µM

**Q.** What about the TGI [13] of the same compound?
**A.** 14.1 µM

**Q.** And the GI50 [14]?
**A.** 1.52 µM

**Q.** What about the TGI [14] of the same compound?
**A.** 2.86 µM

**Q.** And the GI50 [15]?
**A.** 3.07 µM

**Q.** What about the TGI [15] of the same compound?
**A.** 11.7 µM

**Q.** What about the GI50 [16] of the same compound?
**A.** 4 µM

**Q.** And the TGI [16]?
**A.** 15.7 µM

**Q.** What about the GI50 [17] of the same compound?
**A.** 3.34 µM

**Q.** What about the TGI [17] of the same compound?
**A.** 12 µM

**Q.** What about the GI50 [18] of the same compound?
**A.** 3.41 µM

**Q.** What about the TGI [18] of the same compound?
**A.** 11.9 µM

**Q.** What about the GI50 [19] of the same compound?
**A.** 10 µM

**Q.** What about the TGI [19] of the same compound?
**A.** 23.4 µM

**Q.** What about the GI50 [20] of the same compound?
**A.** 2.52 µM

**Q.** And the TGI [20]?
**A.** 10.3 µM

**Q.** And the GI50 [21]?
**A.** 2.81 µM

**Q.** What about the TGI [21] of the same compound?
**A.** 11.2 µM

**Q.** What about the GI50 [22] of the same compound?
**A.** 5.71 µM

**Q.** And the TGI [22]?
**A.** 18.2 µM

**Q.** And the GI50 [23]?
**A.** 3.76 µM

**Q.** What about the TGI [23] of the same compound?
**A.** 13 µM

**Q.** And the GI50 [24]?
**A.** 3.81 µM

**Q.** What about the TGI [24] of the same compound?
**A.** 14.6 µM

**Q.** What about the GI50 [25] of the same compound?
**A.** 3.11 µM

**Q.** And the TGI [25]?
**A.** 12.1 µM

**Q.** What about the GI50 [26] of the same compound?
**A.** 5.09 µM

**Q.** What about the TGI [26] of the same compound?
**A.** 17.5 µM

**Q.** And the GI50 [27]?
**A.** 2.2 µM

**Q.** What about the TGI [27] of the same compound?
**A.** 5.73 µM

**Q.** And the GI50 [28]?
**A.** 1.63 µM

**Q.** And the TGI [28]?
**A.** 5.02 µM

**Q.** And the GI50 [29]?
**A.** 2.51 µM

**Q.** And the TGI [29]?
**A.** 8.74 µM

**Q.** And the GI50 [30]?
**A.** 10.7 µM

**Q.** What about the TGI [30] of the same compound?
**A.** 23.8 µM

**Q.** And the GI50 [31]?
**A.** 3.67 µM

**Q.** What about the TGI [31] of the same compound?
**A.** 14.7 µM

**Q.** What about the GI50 [32] of the same compound?
**A.** 7.93 µM

**Q.** What about the TGI [32] of the same compound?
**A.** 20.6 µM

**Q.** What about the GI50 [33] of the same compound?
**A.** 2.23 µM

**Q.** And the TGI [33]?
**A.** 5.31 µM

**Q.** What about the GI50 [34] of the same compound?
**A.** 2.69 µM

**Q.** What about the TGI [34] of the same compound?
**A.** 10.3 µM

**Q.** What about the GI50 [35] of the same compound?
**A.** 12.8 µM

**Q.** And the TGI [35]?
**A.** 27.9 µM

**Q.** And the GI50 [36]?
**A.** 2.78 µM

**Q.** And the TGI [36]?
**A.** 6.51 µM

**Q.** And the GI50 [37]?
**A.** 12.4 µM

**Q.** And the TGI [37]?
**A.** 26 µM

**Q.** And the GI50 [38]?
**A.** 8.34 µM

**Q.** What about the TGI [38] of the same compound?
**A.** 21.4 µM

**Q.** And the GI50 [39]?
**A.** 3.66 µM

**Q.** What about the TGI [39] of the same compound?
**A.** 13.9 µM

**Q.** What about the GI50 [40] of the same compound?
**A.** 1.78 µM

**Q.** And the TGI [40]?
**A.** 5.78 µM

**Q.** What about the GI50 [41] of the same compound?
**A.** 2.52 µM

**Q.** And the TGI [41]?
**A.** 10.4 µM

**Q.** What about the GI50 [42] of the same compound?
**A.** 5.11 µM

**Q.** And the TGI [42]?
**A.** 17.6 µM

**Q.** What about the GI50 [43] of the same compound?
**A.** 3.42 µM

**Q.** And the TGI [43]?
**A.** 12.9 µM

**Q.** And the GI50 [44]?
**A.** 3.99 µM

**Q.** What about the TGI [44] of the same compound?
**A.** 16.6 µM

**Q.** What about the GI50 [45] of the same compound?
**A.** 11 µM

**Q.** What about the TGI [45] of the same compound?
**A.** 23 µM

**Q.** And the GI50 [46]?
**A.** 1.6 µM

**Q.** What about the TGI [46] of the same compound?
**A.** 3.65 µM

**Q.** What about the GI50 [47] of the same compound?
**A.** 5.22 µM

**Q.** And the TGI [47]?
**A.** 17.2 µM

**Q.** And the GI50 [48]?
**A.** 13.4 µM

**Q.** And the TGI [48]?
**A.** 29.4 µM

**Q.** And the GI50 [49]?
**A.** 4.95 µM

**Q.** What about the TGI [49] of the same compound?
**A.** 17.4 µM

**Q.** And the GI50 [50]?
**A.** 3.48 µM

**Q.** And the TGI [50]?
**A.** 12.5 µM

**Q.** And the GI50 [51]?
**A.** 1.31 µM

**Q.** And the TGI [51]?
**A.** 3.21 µM

**Q.** And the GI50 [52]?
**A.** 4.06 µM

**Q.** What about the TGI [52] of the same compound?
**A.** 14.6 µM

**Q.** And the GI50 [53]?
**A.** 3.02 µM

**Q.** What about the TGI [53] of the same compound?
**A.** 14.4 µM

**Q.** And the GI50 [54]?
**A.** 10.3 µM

**Q.** And the TGI [54]?
**A.** 23.3 µM

**Q.** What about the GI50 [55] of the same compound?
**A.** 5.15 µM

**Q.** What about the TGI [55] of the same compound?
**A.** 17.4 µM

**Q.** And the GI50 [56]?
**A.** 5.77 µM

**Q.** What about the TGI [56] of the same compound?
**A.** 18.7 µM

**Q.** What about the GI50 [57] of the same compound?
**A.** 4.59 µM

**Q.** And the TGI [57]?
**A.** 16.4 µM

**Q.** And the GI50 [58]?
**A.** 8.31 µM

**Q.** And the TGI [58]?
**A.** 21.1 µM

Reference: PubChem BioAssay (NCI)
